Data from patent publication US4331659A, “Antibiotic U-62,162 and process of making” (The Upjohn Company, priority 1980, dated 1982).
Values after ≈ are worked out from the molar mass of the structure shown.

Assays:
Solubilities = type: physicochemical; details: lower alcohols (1-4 carbons), esters, ethers, aromatic hydrocarbons, dimethylformamide, dimethylsulfoxide, lower ketones (3-6 carbons)
S. aureus 6029 = experiment: disc plate assay (zone of inhibition, BU); type: cell-based; details: essentially pure crystalline, after countercurrent distribution
Method: Buffered (pH 5.8) silica gel is prepared by treating 1 kg of silica gel 60 with a solution of 54.4 g of KH2 PO4 in 800 ml of water. This is dried 16 hours at 110°. A 1 inch (diameter) column containing 60 g of buffered (pH 5.8) silica gel is poured in a slurry with chloroform. To this is added 250 mg of crude U-62,162, prepared as described above, in chloroform. The column is developed first with 120 ml of CHCl3, then with CHCl3 :MeOH (94:6 v/v). Fractions of 5 ml each are collected beginning when the mixed solvent is introduced. They are assayed by plating 12 mm discs containing […] aliquots on S. aureus 6029 trays. Fractions 55-65, containing most of the activity, are pooled and evaporated, 90 mg, […], 17,200 total BU.
A preparation of antibiotic U-62,162, as described above, (3 g) is distributed for 300 transfers in the two-phase solvent system afforded by ethyl acetate:ethanol (95%):cyclohexane:water (2:3:3:2 v/v). Phase volumes are 10 ml each. Fractions 120-150 are combined and the residue from these after evaporation affords essentially pure crystalline antibiotic U-62,162, 1 g, assaying 800-1500 BU/mg against S. aureus 6029. A BU is the amount of material distributed on a 12 mm disc which will give a 20 mm zone of inhibition.

Gram-positive bacteria = experiment: antibacterial activity against Gram-positive bacteria; type: cell-based
Method: (§1) The antibacterial assay is a standard agar dilution assay. The MIC is determined by standard methods using two-fold dilutions of the antibiotic in Brain Heart Infusion Broth (Difco Lab., Detroit, Michigan). The inocula are overnight cultures of the test organisms, diluted so that the final population contains approximately 10^5 cells/ml. The solutions are incubated at 28° to 37° C. for 24 hours. The lowest antibiotic concentration which allows no growth=MIC or minimum inhibitory concentration.

H. influenzae = experiment: standard agar-dilution method, MIC against ampicillin-resistant and ampicillin-susceptible H. influenzae type b; type: cell-based
Method: Antibiotic U-62,162 was also tested for activity against a group of ampicillin-resistant and ampicillin-susceptible H. influenzae type b.
A solution of the compound was prepared in dimethylsulfoxide (DMSO), diluted in Brain Heart Infusion Broth (BHIB) and MIC's were determined using the standard agar-dilution method.

stability to pH = type: physicochemical; details: pH 8.5 and higher
Streptococcus pyogenes = experiment: standard agar dilution assay (MIC); type: cell-based; details: UC 152; 24 hours, 28° to 37° C.
Method: as §1

Klebsiella pneumoniae = experiment: standard agar dilution assay (MIC); type: cell-based; details: UC 58; 24 hours, 28° to 37° C.
Method: as §1

Streptococcus pneumoniae = experiment: standard agar dilution assay (MIC); type: cell-based; details: UC 41; 24 hours, 28° to 37° C.
Method: as §1

Streptococcus faecalis = experiment: standard agar dilution assay (MIC); type: cell-based; details: UC 694; 24 hours, 28° to 37° C.
Method: as §1

Pseudomonas aeruginosa = experiment: standard agar dilution assay (MIC); type: cell-based; details: UC 95; 24 hours, 28° to 37° C.
Method: as §1

Escherichia coli = experiment: standard agar dilution assay (MIC); type: cell-based; details: UC 45; 24 hours, 28° to 37° C.
Method: as §1

[1] = tested on: Salmonella schottmuelleri; experiment: standard agar dilution assay (MIC); type: cell-based; details: UC 126; 24 hours, 28° to 37° C.
Method: as §1

Enterococcus sp. = experiment: standard agar dilution assay (MIC); type: cell-based; details: UC 701; 24 hours, 28° to 37° C.
Method: as §1

Staphylococcus aureus = experiment: standard agar dilution assay (MIC); type: cell-based; details: 24 hours, 28° to 37° C.
Method: as §1

In the case of CC(C)=CC(C)CC(C)/C=C/C(=O)NC1=CC(O)(CCCCC(=O)O)C2OC2C1=O (centres unmarked) [U-62,162], the Solubilities (Solubilities) is reported as “soluble”, the “potency (BU; amount on a 12 mm disc which will give a 20 mm zone of inhibition)” value (S. aureus 6029) is reported as 800-1500 BU/mg and the “activity against various Gram-positive bacteria (in words)” value (Gram-positive bacteria) is reported as “active”. It also gave an MIC (H. influenzae; UC 6482, ampicillin susceptible) of 62.5 µg/mL (≈ 149 µM), an MIC (H. influenzae; UC 6483, ampicillin resistant) of 31.25 µg/mL (≈ 74.5 µM) and an MIC (H. influenzae; UC 6484, ampicillin resistant) of 31.25 µg/mL (≈ 74.5 µM). For the same compound, the MIC (H. influenzae; UC 6485, ampicillin susceptible) was 31.25 µg/mL (≈ 74.5 µM), the MIC (H. influenzae; UC 6486, ampicillin susceptible) was 31.25 µg/mL (≈ 74.5 µM) and the MIC (H. influenzae; UC 6582, ampicillin resistant) was 31.25 µg/mL (≈ 74.5 µM). It also gave an MIC (H. influenzae; UC 6583, ampicillin resistant) of 31.25 µg/mL (≈ 74.5 µM), an MIC (H. influenzae; UC 6585, ampicillin resistant) of 31.25 µg/mL (≈ 74.5 µM) and an MIC (H. influenzae; UC 6586, ampicillin resistant) of 31.25 µg/mL (≈ 74.5 µM). The MIC (H. influenzae; UC 6587, ampicillin resistant) was 31.25 µg/mL (≈ 74.5 µM), the MIC (H. influenzae; UC 6589, ampicillin resistant) was 31.25 µg/mL (≈ 74.5 µM) and the MIC (H. influenzae; UC 6592, ampicillin resistant) was 15.6 µg/mL (≈ 37.2 µM). The MIC (H. influenzae; UC 6595, ampicillin resistant) was 31.25 µg/mL (≈ 74.5 µM), the MIC (H. influenzae; UC 6596, ampicillin resistant) was 31.25 µg/mL (≈ 74.5 µM) and the MIC (H. influenzae; UC 6597, ampicillin susceptible) was 31.25 µg/mL (≈ 74.5 µM). For the same compound, the MIC (H. influenzae; UC 6598, ampicillin susceptible) was 31.25 µg/mL (≈ 74.5 µM), the “activity against H. influenzae type b cultures (in words)” value (H. influenzae; all of the cultures tested) was “moderate activity” and the stability (stability to pH) was “unstable”. For the same compound, the “Minimum Inhibitory Concentration” value (Streptococcus pyogenes) was 125 µg/mL, the “Minimum Inhibitory Concentration” value (Klebsiella pneumoniae) was over 1000 µg/mL and the “Minimum Inhibitory Concentration” value (Streptococcus pneumoniae) was 1.0 µg/mL. For the same compound, the “Minimum Inhibitory Concentration” value (Streptococcus faecalis) was 7.8 µg/mL, the “Minimum Inhibitory Concentration” value (Pseudomonas aeruginosa) was over 1000 µg/mL and the “Minimum Inhibitory Concentration” value (Escherichia coli) was over 1000 µg/mL. For the same compound, the “Minimum Inhibitory Concentration” value [1] was over 1000 µg/mL, the “Minimum Inhibitory Concentration” value (Enterococcus sp.) was 7.8 µg/mL and the “Minimum Inhibitory Concentration” value (Staphylococcus aureus; UC 76) was 1.0 µg/mL. The “Minimum Inhibitory Concentration” value (Staphylococcus aureus; UC 6685) was 1.0 µg/mL and the “Minimum Inhibitory Concentration” value (Staphylococcus aureus; UC 6690) was 1.0 µg/mL.
